Experimental data taken from patent US12433844B2, “Preparation method and application of tumor microparticles encapsulating metabolic inhibitors” (Union Hospital, Tongji Medical College, Huazhong University …, priority 2022, dated 2025).

Tested on: lung metastasis
Assay: Lung metastatic nodules count (H&E staining)
Format: in vivo, mice
Details: compared to the PBS intervention group
Description: In order to explore the anti-tumor effect of TMP-F combined with chemotherapy, two doses of cisplatin chemotherapy (Cis) are added during the intervention process. […] In addition, the lungs of mice are extracted, hematoxylin-eosin (H&E) staining is performed on the lungs of mice, and the number of lung metastatic nodules under the light microscope are observed and counted.

Structure (SMILES): N.N.[Cl][Pt][Cl] [chemotherapy alone, cisplatin]
- lung metastasis (number of lung metastatic nodules): inhibits the lung metastasis
